We go through 10 compounds from ChEMBL document CHEMBL1134718, “N-acyloxymethyl carbamate linked prodrugs of pseudomycins are novel antifungal agents” (2001).

In brackets after ≈: the same amount, converted by molar mass. Positions of bridges follow the written chain, without caps; N, C: chain ends. Non-standard residues stand in square brackets, D forms with d. Residues, ends and D or L forms follow the SMILES beside them. *: point of attachment. Tetradecanoyl(3R-OH) = CCCCCCCCCCC[C@@H](O)CC(=O)*; Asp(3S-OH) = N[C@H](C(=O)O)[C@H](O)C(=O)O; Thr(4-Cl) = N[C@H](C(=O)O)[C@H](O)CCl; aThr = C[C@H](O)[C@H](N)C(=O)O; dDab = NCC[C@@H](N)C(=O)O; Dab = NCC[C@H](N)C(=O)O; Dhb = C/C=C(\N)C(=O)O A value given as a limit tells only on which side of the number the result lay.

In one assay the test system is Candida albicans. Description: Minimum inhibitory concentration against Candida albicans. The class given is functional.
A further assay relates to Aspergillus fumigatus. Description: Minimum inhibitory concentration against Aspergillus fumigatus. The format is functional.
The next assay has as its system Cryptococcus neoformans. Kind of assay: Minimum inhibitory concentration against Cryptococcus neoformans.
The subject of assay [1] is Mus musculus. Kind of assay: Effective dose against disseminated Candidiasis mouse model after intraperitoneal administration; Value ranges from 7.8-12.4. The format is functional.
For assay [2], the system named is Mus musculus. Kind of assay: The compound was tested for antifungal activity in tail vein irritation model 7 days after a dose of 20 mg/kg administered intravenously at 0,24,48,72 h; Positive. The format is functional, organism-based. On the set-up: dose 20 mg/kg.
Assay [3] has as its system Mus musculus. Kind of assay: Effective dose against disseminated Candidiasis mouse model after intraperitoneal administration. The format is functional.
The subject of assay [4] is Mus musculus. Description: The compound was tested for antifungal activity in tail vein irritation model 7 days after a dose of 20 mg/kg administered intravenously at 0,24,48,72 h; Negative. The class given is functional, organism-based. On the set-up: dose 20 mg/kg.
For assay [5], the system named is Mus musculus. Kind of assay: Effective dose against disseminated Candidiasis mouse model after intraperitoneal administration; Value ranges from 2.5-7.2. The class given is functional.
Assay [6] concerns Mus musculus. Kind of assay: Effective dose against disseminated Candidiasis mouse model after intraperitoneal administration; Value represented as 6.4/14.1. The format is functional.

As for `C/C=C1/NC(=O)[C@H]([C@H](C)O)NC(=O)[C@H](CCN)NC(=O)[C@H](CCCCN)NC(=O)[C@H](CC(=O)O)NC(=O)[C@@H](CCN)NC(=O)[C@@H](NC(=O)C[C@H](O)CCCCCCCCCCCCC)COC(=O)[C@H]([C@H](O)CCl)NC(=O)[C@H]([C@H](O)C(=O)O)NC1=O` [PSEUDOMYCIN C], the MIC (as a rule, the least concentration at which growth counts as inhibited) with Candida albicans was 0.312 µg/mL (≈ 0.252 µM); in the assay on Aspergillus fumigatus, 10 µg/mL (≈ 8.09 µM); against Cryptococcus neoformans, less than 0.02 µg/mL. Moreover, in the assay with Mus musculus [1], the ED50 is reported as 7.8 mg 4kg-1.

For the compound `C/C=C1/NC(=O)[C@H]([C@H](C)O)NC(=O)[C@@H](CCN)NC(=O)[C@H](CCCCN)NC(=O)[C@H](CC(=O)O)NC(=O)[C@@H](CCN)NC(=O)[C@@H](NC(=O)C[C@H](O)CCCCCCCCCCCCC)COC(=O)[C@H]([C@H](O)CCl)NC(=O)[C@H]([C@H](O)C(=O)O)NC1=O`, the Toxicity result with Mus musculus [2] is “Positive”.

For `C/C=C1/NC(=O)[C@H]([C@H](C)O)NC(=O)[C@H](CCNC(=O)OCOC(=O)C(C)(C)C)NC(=O)[C@H](CCCCNC(=O)OCOC(=O)C(C)(C)C)NC(=O)[C@H](CC(=O)O)NC(=O)[C@@H](CCNC(=O)OCOC(=O)C(C)(C)C)NC(=O)[C@@H](NC(=O)C[C@H](O)CCCCCCCCCCCCC)COC(=O)[C@H]([C@H](O)CCl)NC(=O)[C@H]([C@H](O)C(=O)O)NC1=O`, the ED50 in the assay on Mus musculus [3] is listed as 9 mg 4kg-1. Also, the MIC with Candida albicans, in the assay on Aspergillus fumigatus and in the assay on Cryptococcus neoformans was more than 20 µg/mL each time.

Turning to `C/C=C1/NC(=O)[C@H]([C@H](C)O)NC(=O)[C@@H](CCNC(=O)OCOC(=O)C(C)(C)C)NC(=O)[C@H](CCCCNC(=O)OCOC(=O)C(C)(C)C)NC(=O)[C@H](CC(=O)O)NC(=O)[C@@H](CCNC(=O)OCOC(=O)C(C)(C)C)NC(=O)[C@@H](NC(=O)C[C@H](O)CCCCCCCCCCCCC)COC(=O)[C@H]([C@H](O)CCl)NC(=O)[C@H]([C@H](O)C(=O)O)NC1=O`, the Toxicity result in the assay with Mus musculus [4] is “Negative”.

With `C/C=C1\NC(=O)[C@H]([C@H](C)O)NC(=O)[C@H](CCN)NC(=O)[C@H](CCCCN)NC(=O)[C@H](CC(=O)O)NC(=O)[C@@H](CCN)NC(=O)[C@@H](NC(=O)C[C@H](O)CCCCCCCCCCC)COC(=O)[C@H]([C@H](O)CCl)NC(=O)[C@H]([C@H](O)C(=O)O)NC1=O` [PSEUDOMYCIN B] ({Tetradecanoyl(3R-OH)}-S[dDab]DK[Dab][aThr][Dhb][Asp(3S-OH)][Thr(4-Cl)]; ester 1-C), the ED50 in the assay on Mus musculus [5] amounted to 2.5 mg 4kg-1. For the same compound, the MIC was determined as 0.625 µg/mL (≈ 0.517 µM) against Candida albicans, 20 µg/mL (≈ 16.6 µM) with Aspergillus fumigatus and 0.039 µg/mL (≈ 0.0323 µM) in the assay with Cryptococcus neoformans. Besides, the Toxicity result in the assay with Mus musculus [2] is “Positive”.

Take `C/C=C1/NC(=O)[C@H]([C@H](C)O)NC(=O)[C@@H](CCNC(=O)OCOC(=O)C(C)(C)C)NC(=O)[C@H](CCCCNC(=O)OCOC(=O)C(C)(C)C)NC(=O)[C@H](CC(=O)O)NC(=O)[C@@H](CCNC(=O)OCOC(=O)C(C)(C)C)NC(=O)[C@@H](NC(=O)C[C@H](O)CCCCCCCCCCC)COC(=O)[C@H]([C@H](O)CCl)NC(=O)[C@H]([C@H](O)C(=O)O)NC1=O`: the Toxicity entry with Mus musculus [4] was “Negative”.

As for `C/C=C1/NC(=O)[C@H]([C@H](C)O)NC(=O)[C@H](CCNC(=O)OCOC(C)=O)NC(=O)[C@H](CCCCNC(=O)OCOC(C)=O)NC(=O)[C@H](CC(=O)O)NC(=O)[C@@H](CCNC(=O)OCOC(C)=O)NC(=O)[C@@H](NC(=O)C[C@H](O)CCCCCCCCCCC)COC(=O)[C@H]([C@H](O)CCl)NC(=O)[C@H]([C@H](O)C(=O)O)NC1=O`, the ED50 in the assay on Mus musculus [3] stood at 13 mg 4kg-1.

`C/C=C1/NC(=O)[C@H]([C@H](C)O)NC(=O)[C@H](CCNC(=O)OCOC(=O)C(C)(C)C)NC(=O)[C@H](CCCCNC(=O)OCOC(=O)C(C)(C)C)NC(=O)[C@H](CC(=O)O)NC(=O)[C@@H](CCNC(=O)OCOC(=O)C(C)(C)C)NC(=O)[C@@H](NC(=O)C[C@H](O)CCCCCCCCCCC)COC(=O)[C@H]([C@H](O)CCl)NC(=O)[C@H]([C@H](O)C(=O)O)NC1=O`: the MIC against Candida albicans, against Aspergillus fumigatus and with Cryptococcus neoformans was more than 20 µg/mL throughout. This compound also registered an ED50 with Mus musculus [6] of 6.4 mg 4kg-1.

`C/C=C1/NC(=O)[C@H]([C@H](C)O)NC(=O)[C@@H](CCNC(=O)OC(C)OC(C)=O)NC(=O)[C@H](CCCCNC(=O)OC(C)OC(C)=O)NC(=O)[C@H](CC(=O)O)NC(=O)[C@@H](CCNC(=O)OC(C)OC(C)=O)NC(=O)[C@@H](NC(=O)C[C@H](O)CCCCCCCCCCC)COC(=O)[C@H]([C@H](O)CCl)NC(=O)[C@H]([C@H](O)C(=O)O)NC1=O` (some centres undefined) returned an ED50 with Mus musculus [3] of more than 20 mg 4kg-1. In addition, the Toxicity result in the assay with Mus musculus [4] is “Negative”.

For `C/C=C1/NC(=O)[C@H]([C@H](C)O)NC(=O)[C@@H](CCNC(=O)OCOC(C)=O)NC(=O)[C@H](CCCCNC(=O)OCOC(C)=O)NC(=O)[C@H](CC(=O)O)NC(=O)[C@@H](CCNC(=O)OCOC(C)=O)NC(=O)[C@@H](NC(=O)C[C@H](O)CCCCCCCCCCC)COC(=O)[C@H]([C@H](O)CCl)NC(=O)[C@H]([C@H](O)C(=O)O)NC1=O`, in the assay with Mus musculus [2], the Toxicity result was “Positive”.
